26 molecules from US8399465B2, “Compounds with two fused bicyclic heteroaryl moieties as modulators of leukotriene A4 hydrolase” (Janssen Pharmaceutica NV, priority 2009, dated 2013) can be followed below.

Assay [1] concerns LTB4 production in murine blood (LTA4H). Put plainly: LTB4 production by calcium ionophore-stimulated murine blood for LTA4H inhibitor activity. The following applies: Mus musculus; murine blood diluted 1 in 15, A23187 stimulated; single determination or average; mark after value = form tested: ′ free base, ″ hydrochloride, ^ formate; read-out: IC50. The class given is cell-based, CD-1 mice. The gist of the method:
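Heparinized blood from CD-1 mice was preincubated with compound for 15 min at 37° C, then stimulated with calcium ionophore A23187 (final 7 μg/mL) for 30 min. Centrifugation stopped the reaction, and LTB4 in the supernatant was measured by enzyme immunoassay. Values are single determinations or means of two or more.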

The target in assay [2] is T1, recombinant human LTA4 hydrolase (rhLTA4H) (Homo sapiens, UniProt P09960).
T1 construct: made in house; host or cells: Spodoptera frugiperda (Sf-9) cells, baculovirus (pFastBac1)
T1 sequence (P09960 1-611): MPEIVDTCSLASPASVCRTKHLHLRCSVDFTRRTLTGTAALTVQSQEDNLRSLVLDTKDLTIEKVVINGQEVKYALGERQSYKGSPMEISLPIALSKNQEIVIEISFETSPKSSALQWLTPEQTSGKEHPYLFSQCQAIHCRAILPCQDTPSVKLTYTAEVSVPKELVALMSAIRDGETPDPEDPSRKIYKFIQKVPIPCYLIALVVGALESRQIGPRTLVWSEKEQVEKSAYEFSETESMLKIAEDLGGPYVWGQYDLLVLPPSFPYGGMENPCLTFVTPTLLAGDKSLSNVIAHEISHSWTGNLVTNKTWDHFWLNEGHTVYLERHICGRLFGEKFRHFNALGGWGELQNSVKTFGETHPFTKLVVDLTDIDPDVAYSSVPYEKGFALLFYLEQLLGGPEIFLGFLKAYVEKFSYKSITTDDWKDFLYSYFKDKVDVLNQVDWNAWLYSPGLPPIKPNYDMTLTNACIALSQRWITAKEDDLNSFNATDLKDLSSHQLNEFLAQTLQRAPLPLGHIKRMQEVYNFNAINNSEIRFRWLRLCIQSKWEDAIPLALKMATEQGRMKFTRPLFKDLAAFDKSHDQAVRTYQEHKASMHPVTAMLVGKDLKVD
Kind of assay: Recombinant human LTA4 hydrolase assay for LTA4 hydrolase inhibitor activity. It is filed as biochemical. The conditions noted are these: rhLTA4H, LTB4 by immunoassay; single determination or average of two or more; mark after value = form tested: ′ free base, ″ hydrochloride, ^ formate; read-out: IC50. Put shortly:
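Baculovirus/Sf-9-expressed human LTA4H (10 ng) was preincubated 10 min at rt with compound in assay buffer (10% DMSO in compound dilution), then reacted 30 min at rt with LTA4 free acid made from its methyl ester. LTB4 produced was measured by ELISA after dilution; IC50 from non-linear regression, single or averaged determinations.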

Structures can show the parent of a compound that is named as a salt.

As to `CC(=O)NC1CCN(Cc2coc3cc(Oc4nc5ncc(F)cc5s4)ccc23)CC1` [Example 255, N-{1-[6-(6-Fluoro-thiazolo[4,5-b]pyridin-2-yloxy)-benzofuran-3-ylmethyl]-piperidin-4-yl}-acetamide formate], the IC50 in assay [1] turned out to be 72 nM; in assay [2], 31 nM.

Regarding `c1cnc2nc(Oc3ccc4c(CNC5CCCC5)coc4c3)sc2c1` [Example 298, Cyclopentyl-[6-(thiazolo[4,5-b]pyridin-2-yloxy)-benzofuran-3-ylmethyl]-amine], the IC50 came to 17 nM in assay [1] and 12 nM in assay [2].

Take `NC(=O)N[C@H]1C[C@H]2CC[C@@H](C1)N2Cc1cc2ccc(Oc3nc4ncccc4s3)cc2o1` [Example 172, meso-endo-{8-[6-(Thiazolo[4,5-b]pyridin-2-yloxy)-benzofuran-2-ylmethyl]-8-aza-bicyclo[3.2.1]oct-3-yl}-urea]: the IC50 worked out at 230 nM in assay [1] and 9 nM in assay [2].

Consider `c1cnc2nc(Oc3ccc4c(CN5CCCC6CCCCC65)coc4c3)sc2c1` (stereo not shown) [Example 267, 1-[6-(Thiazolo[4,5-b]pyridin-2-yloxy)-benzofuran-3-ylmethyl]-decahydro-quinoline formate], for which the IC50 was determined as 44 nM in assay [1] and 9 nM in assay [2].

Turning to `c1ccc2sc(Oc3ccc4c(CN5CCOCC5)coc4c3)nc2c1` [Example 165, 2-(3-Morpholin-4-ylmethyl-benzofuran-6-yloxy)-benzothiazole], the IC50 in assay [1] was 840 nM; in assay [2] it was 95 nM.

For `OC1(c2ccc(Br)cc2)CCN(Cc2coc3cc(Oc4nc5ncccc5s4)ccc23)CC1` [Example 348, 4-(4-Bromo-phenyl)-1-[6-(thiazolo[4,5-b]pyridin-2-yloxy)-benzofuran-3-ylmethyl]-piperidin-4-ol], the IC50 amounted to 360 nM in assay [1] and 67 nM in assay [2].

Regarding `O=C1CN(Cc2coc3cc(Oc4nc5ncccc5s4)ccc23)CCN1` [Example 342, 4-[6-(Thiazolo[4,5-b]pyridin-2-yloxy)-benzofuran-3-ylmethyl]-piperazin-2-one], the IC50 in assay [1] is 230 nM; in assay [2], 16 nM.

Turning to `FC(F)(F)C1CCN(Cc2cc3ccc(Oc4nc5ncccc5s4)cc3o2)CC1` [Example 191, 2-[2-(4-Trifluoromethyl-piperidin-1-ylmethyl)-benzofuran-6-yloxy]-thiazolo[4,5-b]pyridine formate], the values for the IC50 in assay [1] and in assay [2] were 833 nM and 10 nM, respectively.

With `c1ccc2c(c1)CN(Cc1coc3cc(Oc4nc5ncccc5s4)ccc13)C2` [Example 331, 2-[3-(1,3-Dihydro-isoindol-2-ylmethyl)-benzofuran-6-yloxy]-thiazolo[4,5-b]pyridine], the values for the IC50 in assay [1] and in assay [2] were 1060 nM and 54 nM, respectively.

Take `CC(=O)N1[C@@H]2CC[C@H]1CN(Cc1coc3cc(Oc4nc5ncccc5s4)ccc13)C2` [Example 295, meso-1-{3-[6-(Thiazolo[4,5-b]pyridin-2-yloxy)-benzofuran-3-ylmethyl]-3,8-diaza-bicyclo[3.2.1]oct-8-yl}-ethanone formate]: the values for the IC50 in assay [1] and in assay [2] were 55 nM and 4 nM, respectively.

As for `c1cnc2nc(Oc3ccc4c(CN5CCc6sc7ccccc7c6C5)c[nH]c4c3)sc2c1` [Example 34, 2-[6-(Thiazolo[4,5-b]pyridin-2-yloxy)-1H-indol-3-ylmethyl]-1,2,3,4-tetrahydro-benzo[4,5]thieno[3,2-c]pyridine formate], the IC50 in assay [1] came out at 401 nM; in assay [2] it was 20 nM.

`CCCNCc1coc2cc(Oc3nc4ncccc4s3)ccc12` [Example 303, Propyl-[6-(thiazolo[4,5-b]pyridin-2-yloxy)-benzofuran-3-ylmethyl]-amine formate]: the IC50 stood at 15 nM in assay [1] and 11 nM in assay [2].

On to `c1cnc2nc(Oc3ccc4c(CN5CCCCC5)c[nH]c4c3)sc2c1` [Example 16, 2-(3-Piperidin-1-ylmethyl-1H-indol-6-yloxy)-thiazolo[4,5-b]pyridine], for which the IC50 in assay [1] came to 17 nM; in assay [2], 3 nM.

With `NC(=O)C1CCN(Cc2cc3cc(Oc4nc5ccccc5s4)ccc3o2)CC1` [Example 105, 1-[5-(Benzothiazol-2-yloxy)-benzofuran-2-ylmethyl]-piperidine-4-carboxylic acid amide], the IC50 in assay [1] is 488 nM; in assay [2], 97 nM.

As for `NC(=O)C1CCN(Cc2cc3ccc(Oc4nc5ccccc5s4)cc3[nH]2)CC1` [Example 69, 1-[6-(Benzothiazol-2-yloxy)-1H-indol-2-ylmethyl]-piperidine-4-carboxylic acid amide], the results for the IC50 in assay [1] and in assay [2] were 1220 nM and 47 nM, respectively.

In the case of `CC(=O)NC1CCN(Cc2coc3cc(Oc4nc5nccc(C)c5s4)ccc23)CC1` [Example 252, N-{1-[6-(7-Methyl-thiazolo[4,5-b]pyridin-2-yloxy)-benzofuran-3-ylmethyl]-piperidin-4-yl}-acetamide formate], the IC50 amounted to 48 nM in assay [1] and 24 nM in assay [2].

Regarding `CC(=O)N1CC2CN(Cc3cc4ccc(Oc5nc6ncccc6s5)cc4o3)CC2C1` (stereo not shown) [Example 195, 1-{5-[6-(Thiazolo[4,5-b]pyridin-2-yloxy)-benzofuran-2-ylmethyl]-hexahydro-pyrrolo[3,4-c]pyrrol-2-yl}-ethanone], the IC50 in assay [1] worked out at 151 nM; in assay [2], 80 nM.

As to `CC(C)N(C)C(=O)c1coc2cc(Oc3nc4ncccc4s3)ccc12` [Example 373, 6-(Thiazolo[4,5-b]pyridin-2-yloxy)-benzofuran-3-carboxylic acid isopropyl-methyl-amide], the IC50 came to 100 nM in assay [1] and 34 nM in assay [2].

Regarding `O=C(O)CN[C@H]1C[C@H]2CC[C@@H](C1)N2Cc1cc2ccc(Oc3nc4ccccc4s3)cc2o1` [Example 81, meso-endo-{8-[6-(Benzothiazol-2-yloxy)-benzofuran-2-ylmethyl]-8-aza-bicyclo[3.2.1]oct-3-ylamino}-acetic acid], the IC50 in assay [1] was 450 nM; in assay [2] it was 29 nM.

Regarding `CCOC(=O)C1CCN(Cc2c[nH]c3cc(Oc4nc5cccnc5s4)ccc23)CC1` [Example 140, 1-[6-(Thiazolo[5,4-b]pyridin-2-yloxy)-1H-indol-3-ylmethyl]-piperidine-4-carboxylic acid ethyl ester], the IC50 came to 8510 nM in assay [1] and 21 nM in assay [2].

On to `Fc1ccc2sc3c(c2c1)CN(Cc1c[nH]c2cc(Oc4nc5ncccc5s4)ccc12)CC3` [Example 38, 8-Fluoro-2-[6-(thiazolo[4,5-b]pyridin-2-yloxy)-1H-indol-3-ylmethyl]-1,2,3,4-tetrahydro-benzo[4,5]thieno[3,2-c]pyridine], for which the IC50 in assay [1] was 350 nM; in assay [2] it was 29 nM.

`CC(=O)N[C@H]1CCN(Cc2coc3cc(Oc4nc5ncccc5s4)ccc23)C1` [Example 310, (S)—N-{1-[6-(Thiazolo[4,5-b]pyridin-2-yloxy)-benzofuran-3-ylmethyl]-pyrrolidin-3-yl}-acetamide]: the IC50 in assay [1] turned out to be 36 nM; in assay [2] it was 13 nM.

Take `NC(=O)N1C[C@@H]2C[C@H]1CN2C(=O)c1coc2cc(Oc3nc4ncccc4s3)ccc12` [Example 375, (1S,4S)-5-[6-(Thiazolo[4,5-b]pyridin-2-yloxy)-benzofuran-3-carbonyl]-2,5-diaza-bicyclo[2.2.1]heptane-2-carboxylic acid amide]: the 50% inhibitory concentration (IC50) in assay [1] amounted to 610 nM; in assay [2] it was 41 nM.

Consider `O=C(CO)N1CC2CN(Cc3coc4cc(Oc5nc6ncccc6s5)ccc34)CC2C1` (stereo not shown) [Example 355, 2-Hydroxy-1-{5-[6-(thiazolo[4,5-b]pyridin-2-yloxy)-benzofuran-3-ylmethyl]-hexahydro-pyrrolo[3,4-c]pyrrol-2-yl}-ethanone], for which the figures for the IC50 in assay [1] and in assay [2] were 68 nM and 3 nM, respectively.

For `COc1ccc(N2CCN(Cc3coc4cc(Oc5nc6ncccc6s5)ccc34)CC2)cc1` [Example 290, 2-{3-[4-(4-Methoxy-phenyl)-piperazin-1-ylmethyl]-benzofuran-6-yloxy}-thiazolo[4,5-b]pyridine formate], the IC50 in assay [1] came out at 170 nM; in assay [2], 40 nM.

As for `c1cnc2nc(Oc3ccc4c(CN5CCc6c(sc7ccccc67)C5)c[nH]c4c3)sc2c1` [Example 35, 2-[6-(Thiazolo[4,5-b]pyridin-2-yloxy)-1H-indol-3-ylmethyl]-1,2,3,4-tetrahydro-benzo[4,5]thieno[2,3-c]pyridine], the IC50 in assay [1] came to 234 nM; in assay [2], 34 nM.

What is called IC50 is the concentration that gives 50% inhibition.
